# How the values were obtained:
# PRMT5-MEP50 = PRMT5-MEP50 (Homo sapiens, UniProt O14744); assay: PRMT5 assay (3H-SAM flashplate scintillation); type: biochemical; settings: PRMT5-MEP50 2.5 nM, histone H4 peptide 100 nM, 3H-SAM 250 nM, 60 min
# Summary of the method: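 PRMT5-MEP50 (2.5 nM final) preincubated 5 min with compound, then reacted 60 min at ambient temperature with 100 nM biotinylated N-acetyl histone H4 peptide and 250 nM 3H-SAM in 20 mM Tris-HCl pH 8.0, 1 mM DTT, 0.01% Tween. Quenched with 15 μM cold SAM; methylated peptide captured on streptavidin flashplates, scintillation counted.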
# METTL16 = target: T1, METTL16 (Homo sapiens, UniProt Q86W50); assay: METTL16 assay (3H-SAM flashplate scintillation); type: biochemical; settings: METTL16 100 nM, RNA 50 nM, 3H-SAM 200 nM, SAM 800 nM, 20 min
# T1 sequence (Q86W50 1-562): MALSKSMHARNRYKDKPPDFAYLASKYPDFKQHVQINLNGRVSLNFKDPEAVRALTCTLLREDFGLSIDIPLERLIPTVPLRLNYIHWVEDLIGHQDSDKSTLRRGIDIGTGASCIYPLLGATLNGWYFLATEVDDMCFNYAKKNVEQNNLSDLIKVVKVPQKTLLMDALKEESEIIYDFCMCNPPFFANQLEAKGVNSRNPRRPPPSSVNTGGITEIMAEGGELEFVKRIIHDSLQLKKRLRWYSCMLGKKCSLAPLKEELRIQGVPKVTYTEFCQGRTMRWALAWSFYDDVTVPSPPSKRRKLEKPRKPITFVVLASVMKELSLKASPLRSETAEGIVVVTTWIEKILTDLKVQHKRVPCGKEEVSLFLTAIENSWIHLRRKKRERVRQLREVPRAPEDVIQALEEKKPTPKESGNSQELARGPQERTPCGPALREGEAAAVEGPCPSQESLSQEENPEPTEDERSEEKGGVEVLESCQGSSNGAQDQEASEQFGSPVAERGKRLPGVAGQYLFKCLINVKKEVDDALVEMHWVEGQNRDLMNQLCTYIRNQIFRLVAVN
# Summary of the method: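 Radiometric methyltransferase reaction at ambient temperature in 20 mM HEPES pH 7.5, 50 mM KCl, 1 mM DTT, with 100 nM enzyme preincubated 5 min with compound. It was started with 50 nM 3′-biotinylated RNA, 200 nM 3H-SAM plus 800 nM cold SAM, run 20 min, then quenched with excess cold SAM. Product was captured on streptavidin flashplates and scintillation-counted.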
# MOLM-13 cells = assay: MOLM-13 96 Hour cell proliferation assay (Cell Titer-Glo); type: cell-based; settings: Homo sapiens
# Summary of the method: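 MOLM-13 cells were seeded at 600 cells/well in RPMI 1640 with 10% FBS, then incubated overnight. Compounds were added at 0.25% DMSO final for 96 h at 37° C, with CellTiter-Glo luminescence read-out. Values normalized to staurosporine (100% death) and DMSO (0%); IC50 from 4-parameter logistic fit.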
# Chain of PRMT5-MEP50 (O14744 whole entry): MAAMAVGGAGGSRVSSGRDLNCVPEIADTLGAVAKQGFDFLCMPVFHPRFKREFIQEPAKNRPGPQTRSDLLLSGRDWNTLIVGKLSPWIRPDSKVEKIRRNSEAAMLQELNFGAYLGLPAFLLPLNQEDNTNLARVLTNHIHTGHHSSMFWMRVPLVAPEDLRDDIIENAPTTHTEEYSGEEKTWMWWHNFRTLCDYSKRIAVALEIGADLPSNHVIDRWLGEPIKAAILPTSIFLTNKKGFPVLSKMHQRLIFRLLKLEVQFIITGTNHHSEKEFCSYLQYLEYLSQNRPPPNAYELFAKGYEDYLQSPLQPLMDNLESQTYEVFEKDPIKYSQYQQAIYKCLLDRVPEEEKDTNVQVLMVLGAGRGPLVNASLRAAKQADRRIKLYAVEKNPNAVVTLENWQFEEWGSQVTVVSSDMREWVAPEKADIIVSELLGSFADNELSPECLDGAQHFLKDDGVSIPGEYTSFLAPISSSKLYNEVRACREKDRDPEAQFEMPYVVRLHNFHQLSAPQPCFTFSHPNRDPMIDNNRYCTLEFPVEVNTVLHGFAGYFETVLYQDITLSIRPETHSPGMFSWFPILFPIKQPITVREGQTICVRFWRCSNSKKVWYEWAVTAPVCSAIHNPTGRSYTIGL
# Chain of PRMT5-MEP50 (Q9BQA1 whole entry partner): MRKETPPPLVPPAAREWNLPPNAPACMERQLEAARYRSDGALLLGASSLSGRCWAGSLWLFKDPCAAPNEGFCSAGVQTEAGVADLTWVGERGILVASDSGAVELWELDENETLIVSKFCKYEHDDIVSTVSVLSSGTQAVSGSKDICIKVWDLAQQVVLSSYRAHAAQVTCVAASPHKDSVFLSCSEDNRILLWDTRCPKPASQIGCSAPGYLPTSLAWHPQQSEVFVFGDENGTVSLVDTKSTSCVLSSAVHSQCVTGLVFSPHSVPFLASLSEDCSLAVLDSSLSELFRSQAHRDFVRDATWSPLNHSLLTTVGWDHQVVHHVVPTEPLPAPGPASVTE
Structure (SMILES),IC50 (PRMT5-MEP50),IC50 (METTL16),IC50 (MOLM-13 cells)
CNc1ccc2ccc(OCc3cncc(-n4cc(CC5CC5)c5c(N)ncnc54)c3)cc2n1 [Compound I-29],> 1000 nM,> 1000 nM,
CNc1ccc2ccc(CCc3cncc(-n4ccc5c(N)ncnc54)c3)cc2n1 [Compound I-30],> 1000 nM,> 1000 nM,
CNc1ccc2ccc(OCc3cc(CO)cc(-n4cc(Cl)c5c(N)ncnc54)c3)cc2n1 [Compound I-34],> 1000 nM,> 1000 nM,
CNc1ccc2ccc(OCc3cncc(-n4cc(-c5ccnn5C)c5c(N)ncnc54)c3)cc2n1 [Compound I-35],> 1000 nM,> 1000 nM,
CNc1ccc2ccc(OCc3cncc(-n4c(C)cc5c(N)ncnc54)c3)cc2n1 [Compound I-36],> 1000 nM,> 1000 nM,
CNc1ccc2ccc(OCc3cncc(-n4cc(C5CCCC5)c5c(N)ncnc54)c3)cc2n1 [Compound I-58],> 1000 nM,> 1000 nM,< 1000 nM
CCNc1ccc2ccc(OCc3cccc(-n4cc(Cl)c5c(N)ncnc54)c3)cc2n1 [Compound I-61],> 1000 nM,> 1000 nM,1000 to 10000 nM
CNc1ccc2cc(CCc3cccc(-n4cc(Cl)c5c(N)ncnc54)c3)ccc2n1 [Compound I-70],> 1000 nM,> 1000 nM,1000 to 10000 nM
"CNc1ccc2ccc(OCc3cncc(-n4cc(Cl)c5c(N)ncnc54)c3)cc2n1 [Compound I-74, 7-((5-(4-amino-5-chloro-7H-pyrrolo[2,3-d]pyrimidin-7-yl)pyridin-3-yl)methoxy)-N-methylquinolin-2-amine]",> 1000 nM,> 1000 nM,1000 to 10000 nM
CNc1ccc2ccc(OCc3cc(Br)cc(-n4cc(Cl)c5c(N)ncnc54)c3)cc2n1 [Compound I-75],> 1000 nM,> 1000 nM,1000 to 10000 nM
CNc1ccc2ccc(OCc3cccc(-n4cc(Cl)c5c(N)ncnc54)c3)cc2n1 [Compound I-87],> 1000 nM,> 1000 nM,1000 to 10000 nM
Nc1nc2cc(OCc3cncc(-n4ccc5c(N)ncnc54)c3)ccc2cc1Br [Compound I-111],> 1000 nM,> 1000 nM,≥ 10000 nM
CNc1ccc2ccc(OCc3cncc(-n4cc([C@H]5CCCO5)c5c(N)ncnc54)c3)cc2n1 [Compound I-112],> 1000 nM,> 1000 nM,< 1000 nM
CNc1ccc2ccc(OCc3cncc(-n4cc([C@@H]5CCCO5)c5c(N)ncnc54)c3)cc2n1 [Compound I-113],> 1000 nM,> 1000 nM,1000 to 10000 nM
Cn1ccc(-c2cn(-c3cncc(CCc4ccc5ccc(N)nc5c4)c3)c3ncnc(N)c23)n1 [Compound I-114],> 1000 nM,> 1000 nM,1000 to 10000 nM
CCc1cc(NCCOC)c2ccc(CCc3cncc(-n4cc(-c5ccn(C)n5)c5c(N)ncnc54)c3)cc2n1 [Compound I-115],> 1000 nM,> 1000 nM,< 1000 nM
CNc1ccc2ccc(CCc3cncc(-n4cc(F)c5c(N)ncnc54)c3)cc2n1 [Compound I-116],> 1000 nM,> 1000 nM,1000 to 10000 nM
CCc1cc(N(C)CCOC)c2ccc(CCc3cncc(-n4cc(-c5ccn(C)n5)c5c(N)ncnc54)c3)cc2n1 [Compound I-117],> 1000 nM,> 1000 nM,< 1000 nM
CCc1cc(N2CCC(F)(F)CC2)c2ccc(OCc3cncc(-n4ccc5c(N)ncnc54)c3)cc2n1 [Compound I-118],> 1000 nM,> 1000 nM,1000 to 10000 nM
CNc1ccc2ccc(OCc3cncc(-n4cc(C(C)C5CC5)c5c(N)ncnc54)c3)cc2n1 (stereo not shown) [Compound I-120],> 1000 nM,> 1000 nM,1000 to 10000 nM
CCc1cc(N2CCNCC2)c2ccc(OCc3cncc(-n4cc(-c5ccn(C)n5)c5c(N)ncnc54)c3)cc2n1 [Compound I-121],> 1000 nM,> 1000 nM,< 1000 nM
CCc1cc(NC)c2ccc(CCc3cncc(-n4cc(-c5ccn(C)n5)c5c(N)ncnc54)c3)cc2n1 [Compound I-122],> 1000 nM,> 1000 nM,< 1000 nM
Cn1ccc(-c2cn(-c3cncc(CCc4ccc5cc(Br)c(N)nc5c4)c3)c3ncnc(N)c23)n1 [Compound I-123],> 1000 nM,> 1000 nM,1000 to 10000 nM
C[C@@H]1CCN1c1ccc2ccc(OCc3cncc(-n4cc(C5CCCC5)c5c(N)ncnc54)c3)cc2n1 [Compound I-124],> 1000 nM,> 1000 nM,1000 to 10000 nM
Nc1ncnc2c1c(C1CCCO1)cn2-c1cncc(CCc2ccc3ccc(N4CCC4)nc3c2)c1 (stereo not shown) [Compound I-126],> 1000 nM,> 1000 nM,1000 to 10000 nM
CCc1cc(NCCCN(C)C)c2ccc(CCc3cncc(-n4ccc5c(N)ncnc54)c3)cc2n1 [Compound I-127],> 1000 nM,> 1000 nM,≥ 10000 nM
CCNc1ccc2ccc(OCc3cncc(-n4cc(-c5ccn(C)n5)c5c(N)ncnc54)c3)cc2n1 [Compound I-128],> 1000 nM,> 1000 nM,1000 to 10000 nM
CNc1ccc2ccc(OCc3cncc(-n4cc(-c5ccc(C)o5)c5c(N)ncnc54)c3)cc2n1 [Compound I-234],> 1000 nM,> 1000 nM,1000 to 10000 nM
CNc1ccc2ccc(OCc3cncc(-n4cc(-c5ncco5)c5c(N)ncnc54)c3)cc2n1 [Compound I-235],> 1000 nM,> 1000 nM,≥ 10000 nM

# Reference: patent US20220372040A1, “METTL3 MODULATORS” (Accent Therapeutics, Inc., priority 2020, published 2022)
